Source: patent US4847256A, “4,5-dihydro and 4,5,6,7-tetrahydropyrazolo(1,5-A)-pyrimidines” (American Cyanamid Company, priority 1986, dated 1989)

Key:
[1] = test system: spontaneously hypertensive rats of the Okamoto strain; experiment: Reduction of mean arterial blood pressure in spontaneously hypertensive rats; type: in vivo, rat (Okamoto strain; conditions: 100 mg/kg or less by gavage, two doses 24 h apart; MABP at 28 hours; number of rats in parentheses in cell; untreated average 160±1.5 mm Hg
Method: Certain of the novel compounds of the present invention are active hypotensive agents at nontoxic doses when administered to mammals. These compounds were tested for hypotensive activity by the method of P. S. Chan and D. W. Poorvin, Clinical and Experimental Hypertension, 1 (6), 817-830 (1979). Male, 16 week old, spontaneously hypertensive rats of the Okamoto strain having an average mean arterial blood pressure of 160±1.5 mm of mercury are used in the test. One to three rats are used per test compound. A rat is dosed by gavage with a test compound, suspended in 2% pre-boiled starch at a concentration of 50 mg/ml, at a dose of 100 mg/kg of body weight or less, with 0.9% sodium chloride loading at a dose of 25 ml/kg of body weight. A second identical dose of the test compound, without sodium chloride loading is given 24 hours later. At 28 hours after the initial dose the mean arterial blood pressure is measured by the method of Chan and Poorvin vide supra. The procedure is repeated in a second and third rat when necessary.

[2] = test system: brain-specific receptors (benzodiazepine binding); experiment: Inhibition of the binding of 3H-benzodiazepine to brain-specific receptors of rats; parameters: species or system rat (Wistar); conditions: 3H-diazepam (1.5 nM) or 3H-flunitrazepam (1.0 nM), rat cortex P2 fraction, pH 7.4, 30 minutes in ice; 12% or more = active; test concentration not given
From the text: Still another test utilized for the determination of anxiolytic activity is the measurement of the ability of a test compound to inhibit the binding of tritiated benzodiazepines to brain-specific receptors of mammals. A modification of the method described by R. F. Squires, et al., Nature, 266, No. 21:732 (April, 1977) and H. Mohler, et al., Science, 198:849 (1977) was employed.
Male albino rats (Wistar strain, weighing 150-200 g each) were used. The test compounds were solubilized in dimethylformamide, acetic acid, ethanol or hydrochloric acid.
Whole cortex of rats was homogenized gently in 20 volumes of ice-cold 0.32 M sucrose, centrifuged twice at 1000 g for 10 minutes and then recentrifuged at 30,000 g for 20 minutes to produce a crude P2 -synaptosomal fraction. The P2 -fraction was either: (1) resuspended in twice the original volume in hypotonic 50 mM Tris.HCl (pH 7.4), or (2) resuspended in one-half the original volume in hypotonic 10 mM Tris.HCl (pH 7.4) and frozen (-20° C.) until time of use. Frozen P2 preparations were thawed and resuspended in four times the original homogenizing volume at time of assay.
The binding assay consisted of 300 μl of the P2 -fraction suspension (0.2-0.4 mg protein), 100 μl of test drug and 100 μl of ^3 H-diazepam (1.5 nM, final concentration) or ^3 H-flunitrazepam (1.0 nM, final concentration) which was added to 1.5 ml of […] Tris.HCl (pH 7.4). Nonspecific binding controls and total binding controls received 100 μl of diazepam (3 μM final concentration) and 100 μl of deionized water, respectively, in place of the test compound. Incubation for 30 minutes proceeded in ice and was terminated by filtration, under vacuum, through glass fiber filters. The filters were washed twice with 5 ml of ice-cold 50 mM Tris.HCl (pH 7.4) and placed in scintillation vials. After drying at 50°-60° C. for 30 minutes, 10 ml of diluent was added and the radioactivity determined in a scintillation counter.
Inhibition of binding was calculated by the difference between total binding and binding in the presence of test compound, divided by the total binding, ×100. Physiological activity can be shown by a test compound that inhibits ^3 H-benzodiazepine binding by 12% or more.

[3] = test system: Wistar strain male rats (conflict procedure); experiment: Non-conditioned passive avoidance (conflict) procedure in rats; type: in vivo, rat (Wistar); conditions: 25 mg/kg, oral, 60 minutes before test
Method: Another test used to assess antianxiety effects is a non-conditioned passive avoidance procedure described by J. R. Vogel, B. Beer and D. E. Clody, "A Simple and Reliable Conflict Procedure for Testing Antianxiety Agents", Psychopharmacologia, 21:1-7 (1971). A conflict situation is induced in rats by a modification of this method.
Groups of 8 naive, Wistar strain male rats weighing 200-240 g each were deprived of water for 48 hours. The test compounds were administered in single or graded, oral doses, suspended in 2% starch with 5% polyethylene glycol in distilled water and one drop of polysorbate 80. Control animals received the vehicle alone. At 60 minutes each rat was placed in an individual clear plastic chamber. Tap water was available ad libitum from a nipple located in a black box off the main chamber. A 0.7 milliampere AC shocking current was established between the stainless steel grid floor and the tap. After 20 licks of non-shocked drinking, a 2 second shocking current was administered to the rat. This ratio of 20 licks of non-shocked drinking followed by a 2 second shock was continued for a total of 3 minutes. The number of shocks taken by each rat during the 3 minute interval was recorded and compared to a control group. […]

[4] = test system: rats (stress induced immobility); experiment: Stress Induced Immobility Test; type: in vivo, rat; conditions: 25 mg/kg intraperitoneally, 15 minutes at 44.5° C.; control 200 seconds
Method: The compounds of this invention are active as antidepressant agents in warm-blooded animals as evidenced by their results when tested in the Stress Induced Immobility Test. In this test, rats were confined on a warm (44.5° C.), but aversive, surface for 15 minutes. After 5-6 minutes, control rats began to show episodes of behavior where they remained flat and immobile for periods of time. The total duration of this behavior was timed. The average duration of immobility in the control rats was 200 seconds. The test compounds were administered intraperitoneally at 25 mg/kg of body weight. A compound was considered active if the maximum duration time was <100 seconds (less than 50% of the control value) in more than 50% of the rats.

[5] = test system: clonic seizures caused by pentylenetetrazole in rats; experiment: Protection against clonic seizures caused by pentylenetetrazole in rats; type: in vivo, rat; conditions: 25 mg/kg, oral or intraperitoneal; pentylenetetrazole 23 mg/kg i.v. at 30 or 60 minutes; active if >=50% protected
Method: The antianxiety properties of the novel compounds of the present invention have been established in a test which indicates anxiolytic activity by the measure of protection from convulsions resulting from the administration of pentylenetetrazole. Single or graded dose levels of the test compounds were administered orally or intraperitoneally in a 2% starch vehicle containing 0.5% v/v polyethylene glycol and one drop of polysorbate 80, or distilled water and one drop of polysorbate 80 to groups of at least 4 rats. At 30 or 60 minutes, the rats were treated intravenously with pentylenetetrazole at a dose of 23 mg/kg of body weight. This dose is estimated to cause clonic seizures in 99% of unprotected rats. The test compounds are considered active if they protect 50% or more of the rats from clonic seizures. It has been reported [R. T. Hill and D. H. Tedeschi, "Animal Testing and Screening Procedures in Evaluating Psychotropic Drugs" in "An Introduction to Psychopharmacology", pp. 237-288 (Eds. R. R. Rech and K. E. Moore, Raven Press, New York, 1971) that there is a high degree of correlation between antagonism of pentylenetetrazole seizures in rats and antianxiety effects in higher warm-blooded animals.

| SMILES | MABP/mm Hg (no. of rats) [1] | % Inhibition of 3H-benzodiazepine binding [2] | also measured |
| --- | --- | --- | --- |
| CC(C)(C)C(=O)c1cnn2c1NCCC2 [2,2-Dimethyl-1-(4,5,6,7-tetrahydropyrazolo[1,5-a]pyrimidin-3-yl)-1-propanone] | 114 mm Hg | 28% | – |
| FC(F)(F)c1cccc(C2=CCNc3c(Cl)cnn32)c1 [3-Chloro-4,5-dihydro-7-[3-(trifluoromethyl)phenyl]pyrazolo[1,5-a]pyrimidine] | – | 63% | – |
| N#Cc1cnn2c1NCCC2c1cccc(C(F)(F)F)c1 (stereo not drawn) [4,5,6,7-Tetrahydro-7-[3-(trifluoromethyl)phenyl]pyrazolo[1,5-a]pyrimidine-3-carbonitrile] | 128 mm Hg | – | – |
| NC(=O)c1cnn2c1NCCC2 [4,5,6,7-Tetrahydropyrazolo[1,5-a]pyrimidine-3-carboxamide] | 137 mm Hg | – | – |
| CN1CC=C(c2cccc(C(F)(F)F)c2)n2ncc(C#N)c21 [4,5-Dihydro-4-methyl-7-[3-(trifluoromethyl)phenyl]pyrazolo[1,5-a]pyrimidine-3-carbonitrile] | – | 12% | Result (no. of shocks per 3 min.) [3]: 19.0 no. of shocks per 3 min. |
| CC1=C(c2cccc(C(F)(F)F)c2)n2ncc(C#N)c2NC1 [4,5-Dihydro-6-methyl-7-[3-(trifluoromethyl)phenyl]pyrazolo[1,5-a]pyrimidine-3-carbonitrile] | – | – | Mean Duration (Seconds) of immobility [4]: 55.0 s |
| N#Cc1cnn2c1NCC=C2c1cccc(C(F)(F)F)c1 [4,5-Dihydro-7-[3-(trifluoromethyl)phenyl]pyrazolo[1,5-a]pyrimidine-3-carbonitrile] | – | 15% | – |
| NC(=O)c1cnn2c1NCC=C2c1cccc(C(F)(F)F)c1 [4,5-Dihydro-7-[3-(trifluoromethyl)phenyl]pyrazolo[1,5-a]pyrimidine-3-carboxamide] | 108 mm Hg | – | – |
| CCOC(=O)c1cnn2c1NCC=C2c1cccc(C(F)(F)F)c1 [4,5-Dihydro-7-[3-(trifluoromethyl)phenyl]pyrazolo[1,5-a]pyrimidine-3-carboxylic acid, ethyl ester] | – | 90% | – |
| FC(F)(F)c1cccc(C2=CCNc3ccnn32)c1 [4,5-Dihydro-7-[3-(trifluoromethyl)phenyl]pyrazolo[1,5-a]pyrimidine] | – | 48% | – |
| N#Cc1cnn2c1NCC=C2c1ccccc1 [4,5-Dihydro-7-phenylpyrazolo[1,5-a]pyrimidine-3-carbonitrile] | – | 20% | – |
| NC(=O)c1cnn2c1NCC=C2c1ccccc1 [4,5-Dihydro-7-phenylpyrazolo[1,5-a]pyrimidine-3-carboxamide] | – | – | % of Rats Protected (against clonic seizures) [5]: 50% |
| CCOC(=O)c1cnn2c1NCC=C2c1ccccc1 [4,5-Dihydro-7-phenylpyrazolo[1,5-a]pyrimidine-3-carboxylic acid, ethyl ester] | – | 54% | – |
| Cc1nn2c(c1C(N)=O)NCC=C2c1cc(Cl)ccc1Cl [7-(2,5-Dichlorophenyl)-4,5-dihydro-2-methylpyrazolo[1,5-a]pyrimidine-3-carboxamide] | 95 mm Hg | – | – |
| N#Cc1cnn2c1NCC=C2c1ccc(Cl)c(Cl)c1 [7-(3,4-Dichlorophenyl)-4,5-dihydropyrazolo[1,5-a]pyrimidine-3-carbonitrile] | – | 12% | – |
| CC1CC(c2cccc(Cl)c2)n2ncc(C#N)c2N1 (stereo not drawn) [7-(3-Chlorophenyl)-4,5,6,7,-tetrahydro-5-methylpyrazolo[1,5-a]pyrimidine-3-carbonitrile] | – | – | Mean Duration (Seconds) of immobility [4]: 75.4 s |
| CC1=C(c2cccc(Cl)c2)n2ncc(C#N)c2NC1 [7-(3-Chlorophenyl)-4,5-dihydro-6-methylpyrazolo[1,5-a]pyrimidine-3-carbonitrile] | – | – | Mean Duration (Seconds) of immobility [4]: 66.7 s |
| NC(=O)c1cnn2c1NCC=C2c1cccc(F)c1 [7-(3-Fluorophenyl)-4,5-dihydropyrazolo[1,5-a]pyrimidine-3-carboxamide] | – | 39% | – |
| CC1CC(c2ccc(Cl)cc2)n2ncc(C#N)c2N1 (stereo not drawn) [7-(4-Chlorophenyl)-4,5,6,7-tetrahydro-5-methylpyrazolo[1,5-a]pyrimidine-3-carbonitrile] | – | – | Mean Duration (Seconds) of immobility [4]: 4.7 s |
| O=C(c1ccccc1)c1cnn2c1NCCC2c1ccncc1 (stereo not drawn) [Phenyl[4,5,6,7-tetrahydro-7-(4-pyridinyl)pyrazolo[1,5-a]pyrimidin-3-yl]methanone] | 125 mm Hg | 22% | – |
| O=C(c1ccccc1)c1cnn2c1NCC=C2c1cccc(C(F)(F)F)c1 [[4,5-Dihydro-7-[3-(trifluoromethyl)phenyl]pyrazolo[1,5-a]pyrimidin-3-yl]phenylmethanone] | 122 mm Hg | 76% | % of Rats Protected (against clonic seizures) [5]: 75%; Result (no. of shocks per 3 min.) [3]: 19.1 no. of shocks per 3 min. |
